Results as given in US5466815A, “Tetrazole derivatives of bile acids, and their use as lipid level lowering medicaments” (Hoechst Aktiengesellschaft, priority 1993, dated 1995).

Biological target: T1, intestinal bile acid transportation system (Na^+ -dependent) in brush border membrane vesicles of the ileum (Oryctolagus cuniculus, UniProt Q28727)
T1 construct: Brush border membrane vesicles were prepared from the intestinal cells of the small intestine; from tissue; host or cells: brush border membrane vesicles from the terminal 7/10 of the small intestine (ileum) of male New Zealand rabbits
T1 sequence (Q28727 1-347): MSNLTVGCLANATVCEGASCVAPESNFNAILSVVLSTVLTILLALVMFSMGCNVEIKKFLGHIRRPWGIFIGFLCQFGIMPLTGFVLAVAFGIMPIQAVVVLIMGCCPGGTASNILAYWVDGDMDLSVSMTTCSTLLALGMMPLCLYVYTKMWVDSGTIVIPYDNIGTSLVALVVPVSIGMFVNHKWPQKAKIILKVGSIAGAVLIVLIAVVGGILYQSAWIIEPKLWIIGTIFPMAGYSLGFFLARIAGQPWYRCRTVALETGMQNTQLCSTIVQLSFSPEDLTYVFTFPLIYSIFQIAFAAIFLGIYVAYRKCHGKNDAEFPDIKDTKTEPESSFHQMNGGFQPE
Test: Inhibition of [^3 H]-taurocholate uptake in brush border membrane vesicles of the ileum of rabbits
Assay type: biochemical, rabbit
Conditions: 50 μM taurocholate, usually 1 minute; for IC50Na TCDC / IC50Na -substance: quotient of IC50Na of reference taurochenodeoxycholate (TCDC) and IC50Na of test substance, Na^+ -dependent transportation content (Na-T-B minus K-T-B); for IC50 -TCDC / IC50 -substance: quotient of IC50 of reference taurochenodeoxycholate (TCDC) and IC50 of test substance, [^3 H]-taurocholate uptake
Procedure: The compounds according to the invention were tested biologically by determination of the inhibition of [^3 H]-taurocholate uptake in brush border membrane vesicles of the ileum of rabbits. The inhibition test was carried out as follows:
1. Preparation of Brush Border Membrane Vesicles from the Ileum of Rabbits
Brush border membrane vesicles were prepared from the intestinal cells of the small intestine by the so-called Mg^2+ precipitation method. Male New Zealand rabbits (2 to 2.5 kg bodyweight) were sacrificed by intravenous injection of 0.5 ml of an aqueous solution of 2.5 mg Tetracain HCl, 100 T61^R and 25 mg of mebezonium iodide. The small intestine was rinsed with ice-cold physiological saline solution. The terminal […] of the small intestine (measured in the oral-rectal direction, i.e. the terminal ileum, which contains the active Na^+ -dependent bile acid transportation system) was used for preparation of the brush border membrane vesicles. The intestines were frozen in plastic bags under nitrogen at -80° C. For preparation of the membrane vesicles, the frozen intestines were […] at 30° C. in a water-bath. The mucosa was scraped off and suspended in 60 ml of ice-cold 12 mM Tris/HCl buffer (pH 7.1)/300 mM mannitol, 5 mM EGTA/10 mg/l of phenylmethylsulfonylfluoride/1 mg/l of trypsin inhibitor for soya beans (32 U/mg)/0.5 mg/l of trypsin inhibitor from bovine lung (193 U/mg)/5 mg/l of bacitracin. After dilution to 300 ml with ice-cold distilled water, the mixture was homogenized with an Ultraturrax (18-rod, IKA Werk Staufen, FRG) for 3 minutes at 75 % of the maximum power, while cooling with ice. After addition of 3 ml of 1M MgCl2 solution (final concentration 10 mM), the mixture was left to stand at 0° C. for exactly 1 minute. By addition of Mg^2+, the cell membranes aggregate and precipitate, with the exception of the brush border membranes. After centrifugation at 3000×g (5000 revolutions per minute, SS-34 rotor) for 15 minutes, the precipitate is discarded and the supernatant, which contains the brush border membranes, was centrifuged at […] (15000 revolutions per minute, SS-34 rotor) for 30 minutes. The supernatant was discarded and the precipitate was rehomogenized in 60 ml of 12 mM tris/HCl buffer (pH 7.1)/60 mM mannitol, 5 mM EGTA using a Potter Elvejhem homogenizer (Braun, Melsungen, 900 revolutions per minute, 10 strokes). After addition of 0.1 ml of 1M MgCl2 solution and an incubation time of 15 minutes at 0° C., the mixture was centrifuged again at 3000×g for 15 minutes. The supernatatant was then centrifuged again at 46000×g (15000 revolutions per minute, SS-34 rotor) for 30 minutes. The precipitate was taken up in 30 ml of 10 mM Tris/Hepes buffer (pH 7.4)/300 mM mannitol and resuspended homogeneously by 20 strokes in a Potter Elvejhem homogenizer at 1000 revolutions per minute. After centrifugation at 48000×g (20000 revolutions per minute, SS-34 rotor) for 30 minutes, the precipitate was taken up in 0.5 to 2 ml of Tris/Hepes buffer (pH 7.4)/280 mM mannitol (final concentration 20 mg/ml) and resuspended with the aid of a tuberculin syringe with a 27 gauge needle. The vesicles were either used for transportation studies immediately after preparation or stored at -196° C. in 4 mg portions in liquid nitrogen.
2. Inhibition of the Na^+ -dependent [^3 H]-taurocholate Uptake in the Brush Border Membrane Vesicles of the Ileum
The uptake of substrates into the brush border membrane vesicles described above was determined by means of the so-called membrane filtration technique. 10 μl of the vesicle suspension (100 μg of protein) were pipetted as drops onto the wall of a polystyrene incubation tube (11×70 mm) which contained the incubation medium with the corresponding ligands (90 μl). […]

Row | SMILES | IC50Na TCDC / IC50Na -substance | IC50 -TCDC / IC50 -substance
1 | C[C@H](Cc1nn[nH]n1)[C@H]1CC[C@H]2[C@@H]3[C@H](O)C[C@@H]4C[C@H](O)CC[C@]4(C)[C@H]3C[C@H](O)[C@]12C [Example 4] | 0.38 | 0.28
2 | CC(CCCc1nn[nH]n1)C1CCC2C3C(O)CC4CC(O)CCC4(C)C3CC(O)C12C (centres unmarked) [Example 14] | 1.35 | 1.20
3 | C[C@H](CCCc1nn[nH]n1)[C@H]1CC[C@H]2[C@@H]3[C@H](O)C[C@@H]4C[C@@H](OCCO)CC[C@]4(C)[C@H]3C[C@H](O)[C@]12C [Example 16] | 0.25 | 0.26
4 | C[C@H](CCC(=O)N[C@H]1CC[C@@]2(C)[C@@H](C1)C[C@@H](O)[C@@H]1[C@@H]2C[C@H](O)[C@]2(C)[C@@H]([C@H](C)CCC(=O)Nc3nn[nH]n3)CC[C@@H]12)[C@H]1CC[C@H]2[C@@H]3[C@H](O)C[C@@H]4C[C@H](O)CC[C@]4(C)[C@H]3C[C@H](O)[C@]12C [Example 22] | 1.35 | 1.66
5 | C[C@H](CCC(=O)Nc1nn[nH]n1)[C@H]1CC[C@H]2[C@@H]3[C@H](O)C[C@@H]4C[C@H](O)CC[C@]4(C)[C@H]3C[C@H](O)[C@]12C [Example 24] | 1.27 | 0.97
6 | C[C@H](CCC(=O)NCCO[C@H]1CC[C@@]2(C)[C@@H](C1)C[C@@H](O)[C@@H]1[C@@H]2C[C@H](O)[C@]2(C)[C@@H]([C@H](C)CCCc3nn[nH]n3)CC[C@@H]12)[C@H]1CC[C@H]2[C@@H]3[C@@H](O)C[C@@H]4C[C@H](O)CC[C@]4(C)[C@H]3CC[C@]12C [Example 27] | 0.25 | 0.26
7 | C[C@H](CCC(=O)NCc1nn[nH]n1)[C@H]1CC[C@H]2[C@@H]3[C@H](O)C[C@@H]4C[C@H](O)CC[C@]4(C)[C@H]3C[C@H](O)[C@]12C [Example 29] | 0.48 | 0.46
